Measurements as given in patent US12187742B2 (XRAD Therapeutics, Inc., priority 2018, dated 2025).
pIC50: −log10 of the molar value. Where a name gives a salt, the structure may show the parent alone.

Legend:
[1] = target: ATM (Homo sapiens (Human), UniProt Q13315); experiment: ATM in Cell Western Assay (pKAP1 in etoposide-treated MCF-7 cells); type: cell-based; conditions: MCF-7 cells, etoposide 100 μM, 1 hr, pKAP1 readout
Outline: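 After paraformaldehyde fixation and Triton X-100 permeabilization, immunostained plates were read by infrared scanning (ODYSSEY CLx). Compound was given as 10 doses, 3-fold dilutions from a 1 μM final top concentration.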

[2] = target: DNA-PK (Homo sapiens (Human), UniProt P78527); experiment: DNA-PK Enzyme-Linked Immunosorbent Assay (phosphorylation of GST-p53 (1-101) peptide); type: biochemical; conditions: ELISA, ATP 20 μM
Outline: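 Inhibition measured by 450 nm absorbance after HRP/TMB detection of phospho-Ser15 on immobilized GST-p53 (1-101). The kinase reaction used 0.1 μg/mL DNA-PK and 20 μM ATP, 1 h at 25 °C. Ten 3-fold compound dilutions, top final concentration 100 nM.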

ATM, sequence (Q13315 whole entry): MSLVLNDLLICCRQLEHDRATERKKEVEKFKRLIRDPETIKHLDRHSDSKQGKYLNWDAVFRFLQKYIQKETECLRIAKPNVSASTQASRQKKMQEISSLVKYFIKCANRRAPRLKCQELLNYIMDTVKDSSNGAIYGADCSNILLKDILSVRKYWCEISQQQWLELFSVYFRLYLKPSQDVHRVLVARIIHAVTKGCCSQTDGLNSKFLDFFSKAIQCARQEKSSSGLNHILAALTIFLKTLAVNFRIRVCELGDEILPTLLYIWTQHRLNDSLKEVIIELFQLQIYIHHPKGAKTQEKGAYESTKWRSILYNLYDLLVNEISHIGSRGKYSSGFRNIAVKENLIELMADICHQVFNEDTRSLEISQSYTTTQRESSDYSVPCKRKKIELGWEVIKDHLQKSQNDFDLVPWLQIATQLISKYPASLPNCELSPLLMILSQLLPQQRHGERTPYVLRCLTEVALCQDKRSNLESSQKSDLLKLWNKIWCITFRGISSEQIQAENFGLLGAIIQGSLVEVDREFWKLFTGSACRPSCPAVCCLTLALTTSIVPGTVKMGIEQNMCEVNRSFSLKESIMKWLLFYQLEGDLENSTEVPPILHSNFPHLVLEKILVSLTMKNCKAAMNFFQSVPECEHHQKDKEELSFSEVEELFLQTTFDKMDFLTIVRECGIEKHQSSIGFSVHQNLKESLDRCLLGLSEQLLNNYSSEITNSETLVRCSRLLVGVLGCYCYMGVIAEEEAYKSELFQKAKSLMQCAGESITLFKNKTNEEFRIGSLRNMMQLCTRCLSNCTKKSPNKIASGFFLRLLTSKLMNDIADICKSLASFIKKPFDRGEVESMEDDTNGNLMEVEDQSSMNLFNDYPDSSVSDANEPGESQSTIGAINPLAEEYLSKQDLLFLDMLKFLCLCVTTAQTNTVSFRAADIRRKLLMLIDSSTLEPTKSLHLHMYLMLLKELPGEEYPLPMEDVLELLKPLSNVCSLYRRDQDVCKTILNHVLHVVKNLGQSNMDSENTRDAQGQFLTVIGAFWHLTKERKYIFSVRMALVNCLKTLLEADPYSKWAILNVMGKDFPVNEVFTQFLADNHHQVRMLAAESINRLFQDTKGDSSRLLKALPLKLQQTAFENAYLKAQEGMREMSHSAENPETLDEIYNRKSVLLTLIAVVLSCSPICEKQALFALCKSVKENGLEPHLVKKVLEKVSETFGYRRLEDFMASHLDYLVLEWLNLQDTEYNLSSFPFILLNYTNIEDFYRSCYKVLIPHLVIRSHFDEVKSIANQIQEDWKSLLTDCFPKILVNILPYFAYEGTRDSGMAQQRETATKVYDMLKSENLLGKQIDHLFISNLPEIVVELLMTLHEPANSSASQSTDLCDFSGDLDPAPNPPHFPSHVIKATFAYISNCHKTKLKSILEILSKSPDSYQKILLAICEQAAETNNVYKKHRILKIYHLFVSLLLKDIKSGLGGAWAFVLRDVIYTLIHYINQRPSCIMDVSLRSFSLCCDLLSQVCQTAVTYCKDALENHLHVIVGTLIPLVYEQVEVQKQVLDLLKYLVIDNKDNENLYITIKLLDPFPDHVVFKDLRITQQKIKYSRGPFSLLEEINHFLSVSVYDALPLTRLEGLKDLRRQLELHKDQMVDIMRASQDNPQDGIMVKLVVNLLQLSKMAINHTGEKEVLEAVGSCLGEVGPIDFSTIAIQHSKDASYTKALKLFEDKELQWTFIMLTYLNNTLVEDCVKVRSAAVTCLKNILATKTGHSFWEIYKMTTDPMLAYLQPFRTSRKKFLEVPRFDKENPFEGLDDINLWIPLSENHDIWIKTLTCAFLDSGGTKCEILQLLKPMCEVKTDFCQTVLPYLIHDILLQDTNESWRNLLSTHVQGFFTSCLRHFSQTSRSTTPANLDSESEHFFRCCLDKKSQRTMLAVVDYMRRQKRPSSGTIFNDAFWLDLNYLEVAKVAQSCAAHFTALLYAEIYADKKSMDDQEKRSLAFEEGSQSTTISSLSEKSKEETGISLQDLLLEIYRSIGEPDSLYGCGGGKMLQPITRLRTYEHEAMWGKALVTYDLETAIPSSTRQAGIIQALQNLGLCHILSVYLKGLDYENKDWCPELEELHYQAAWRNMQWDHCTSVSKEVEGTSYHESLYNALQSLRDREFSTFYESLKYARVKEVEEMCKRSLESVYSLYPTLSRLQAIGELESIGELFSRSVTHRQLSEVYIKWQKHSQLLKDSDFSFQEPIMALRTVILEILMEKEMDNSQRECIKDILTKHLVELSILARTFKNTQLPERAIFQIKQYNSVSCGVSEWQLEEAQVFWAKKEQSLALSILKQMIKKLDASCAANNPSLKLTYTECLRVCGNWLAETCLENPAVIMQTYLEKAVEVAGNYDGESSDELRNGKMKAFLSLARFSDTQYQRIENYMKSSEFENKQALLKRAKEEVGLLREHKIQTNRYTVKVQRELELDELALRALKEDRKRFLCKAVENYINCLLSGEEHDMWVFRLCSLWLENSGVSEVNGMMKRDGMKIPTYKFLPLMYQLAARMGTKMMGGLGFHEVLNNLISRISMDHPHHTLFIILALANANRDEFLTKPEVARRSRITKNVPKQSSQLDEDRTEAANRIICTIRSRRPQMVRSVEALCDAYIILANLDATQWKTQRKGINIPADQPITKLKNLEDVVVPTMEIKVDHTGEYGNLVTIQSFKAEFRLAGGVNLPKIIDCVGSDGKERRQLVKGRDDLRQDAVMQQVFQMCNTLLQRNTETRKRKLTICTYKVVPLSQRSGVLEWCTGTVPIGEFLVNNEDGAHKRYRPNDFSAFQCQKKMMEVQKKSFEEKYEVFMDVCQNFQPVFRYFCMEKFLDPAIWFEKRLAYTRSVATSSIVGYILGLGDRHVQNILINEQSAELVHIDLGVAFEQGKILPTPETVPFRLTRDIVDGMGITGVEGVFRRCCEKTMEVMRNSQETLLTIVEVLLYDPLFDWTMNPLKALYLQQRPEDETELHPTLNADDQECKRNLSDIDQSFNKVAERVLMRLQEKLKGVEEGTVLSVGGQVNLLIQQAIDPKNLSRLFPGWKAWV

Compound | pIC50 [1] | pIC50 [2]
CN1C(=O)C2(CC2)c2c1cnc1ccc(-c3cnc(N4CCC(N(C)C)CC4)c(NS(=O)(=O)C4CC4)c3)cc21 [Example 113, N-(2-(4-(Dimethylamino)piperidin-1-yl)-5-(3′-methyl-2′-oxo-2′,3′-dihydrospiro[cyclopropane-1,1′-pyrrolo[2,3-c]quinolin]-8′-yl)pyridin-3-yl)cyclopropanesulfonamide] | > 9.30 | > 9.30
CN(C)CCCOc1ncc(-c2ccc3ncc4c(c3c2)C2(CN(c3ccccc3)C2)C(=O)N4C)cc1NS(=O)(=O)c1ccccc1 [Example 114, N-(2-(3-(Dimethylamino)propoxy)-5-(3′-methyl-2′-oxo-1-phenyl-2′,3′-dihydrospiro[azetidine-3,1′-pyrrolo[2,3-c]quinolin]-8′-yl)pyridin-3-yl)benzenesulfonamide] | 7.00 to 9.00 | 7.00 to 9.00
CN(C)CC1CCN(c2ncc(-c3ccc4ncc5c(c4c3)C3(CC3)C(=O)N5C)cc2NS(=O)(=O)C2CC2)CC1 [Example 115] | 9.00 to 9.30 | 7.00 to 9.00
CN(C)CCCOc1ncc(-c2ccc3ncc4c(c3c2)C2(CC2)C(=O)N4C)cc1NS(=O)(=O)c1ccccc1OC(F)(F)F [Example 116] | 9.00 to 9.30 | 9.00 to 9.30
CN1CCN(c2ncc(-c3cc4c5c(cnc4cc3F)N(C)C(=O)C53CC3)cc2NS(=O)(=O)c2ccccc2)CC1 [Example 117, N-(5-(7′-Fluoro-3′-methyl-2′-oxo-2′,3′-dihydrospiro [cyclopropane-1,1′-pyrrolo[2,3-c]quinolin]-8′-yl)-2-(4-methylpiperazin-l-yl)Pyridin-3-yl)benzenesulfonamide hydrochloride] | 7.00 to 9.00 | 7.00 to 9.00
CN1C(=O)C2(CC2)c2c1cnc1cc(F)c(-c3cnc(OCCCN4CCCCC4)c(NS(=O)(=O)c4ccccc4)c3)cc21 [Example 118, N-(5-(7′-Fluoro-3′-methyl-2′-oxo-2′,3′-dihydrospiro[cyclopropane-1,1′-pyrrolo[2,3-c]quinolin]-8′-yl)-2-(3-(piperidin-1-yl)propoxy)pyridin-3-yl)benzenesulfonamide hydrochloride] | 7.00 to 9.00 | 7.00 to 9.00
COc1ccc(S(=O)(=O)Nc2cc(-c3ccc4ncc5c(c4c3)C3(CC3)C(=O)N5C)cnc2OCCCN2CCCCC2)cc1 [Example 119, 4-Methoxy-N-(5-(3′-methyl-2′-oxo-2′,3′-dihydrospiro[cyclopropane-1,1′-pyrrolo[2,3-c]quinolin]-8′-yl)-2-(3-(piperidin-1-yl)propoxy)pyridin-3-yl(benzenesulfonamide hydrochloride] | 7.00 to 9.00 | > 9.30
CN(C)CCCOc1ncc(-c2ccc3ncc4c(c3c2)C2(CC2)C(=O)N4C)cc1NS(=O)(=O)c1ccc(OC(F)(F)F)cc1 [Example 121, N-(2-(3-(Dimethylamino)propoxy)-5-(3′-methyl-2′-oxo-2′,3′-dihydrospiro[cyclopropane-1,1′-pyrrolo[2,3-c]quinolin]-8′-yl)pyridin-3-yl)-4-(trifluoromethoxy)benzenesulfonamide] | 7.00 to 9.00 | > 9.30
CN(C)CCCOc1ncc(-c2ccc3c(c2)c2c(c[n+]3[O-])N(C)C(=O)C23CC3)cc1NS(=O)(=O)c1ccccc1 [Example 123, 8′-(6-(3-(Dimethylamino)propoxy)-5-(phenylsulfonamido)pyridin-3-yl)-3′-methyl-2′-oxo-2′,3′-dihydrospiro[cyclopropane-1,1′-pyrrolo[2,3-c]quinoline]5′-oxide] | 7.00 to 9.00 | 7.00 to 9.00
CN1C(=O)C2(CC2)c2c1cnc1cc(F)c(-c3cnc(OCCCN4CCCC4)c(NS(=O)(=O)c4ccccc4)c3)cc21 [Example 124, N-(5-(7′-Fluoro-3′-methyl-2′-oxo-2′,3′-dihydrospiro[cyclopropane-1,1′-pyrrolo[2,3-c]quinolin]-8′-yl)-2-(3-(pyrrolidin-1-yl)propoxy)pyridin-3-yl)benzenesulfonamide] | 7.00 to 9.00 | 7.00 to 9.00
CN(C)CCCOc1ncc(-c2ccc3ncc4c(c3c2)C2(CC2)C(=O)N4C)cc1NS(=O)(=O)c1cc(Cl)cc(Cl)c1 [Example 125, 3.5-Dichloro-IN-(2-(3-(dimethylamino)propoxy)-5-(3′-methyl-2′-oxo-2′,3′-dihydrospiro[cyclopropane-1,1′-pyrrolo[2,3-c]quinolin]-8′-yl)pyridin-3-yl)benzenesulfonamide] | 7.00 to 9.00 | > 9.30
CN(C)CCCOc1ncc(-c2ccc3ncc4c(c3c2)C2(CC2)C(=O)N4C)cc1NS(=O)(=O)c1ccc(OC(F)F)cc1 [Example 126, 4-(Difluoromethoxy)-N-(2-(3-(dimethylamino)propoxy)-5-(3′-methyl-2′-oxo-2′,3′-dihydrospiro[cyclopropane-1,1′-pyrrolo[2,3-c]quinolin]-8′-yl)pyridin-3-yl)benzenesulfonamide] | 7.00 to 9.00 | > 9.30
CN(C)CCCOc1ncc(-c2ccc3ncc4c(c3c2)C2(CC2)C(=O)N4C)cc1NS(=O)(=O)c1ccc(C(C)(C)C)cc1 [Example 127] | 7.00 to 9.00 | 7.00 to 9.00
CN(C)CCCOc1ncc(-c2ccc3ncc4c(c3c2)C2(CC2)C(=O)N4C)cc1NS(=O)(=O)c1ccc(Cl)cc1 [Example 128, 4-Chloro-N-(2-(3-(dimethylamino)propoxy)-5-(3′-methyl-2′-oxo-2′,3′-dihydrospiro[cyclopropane-1,1′-pyrrolo[2,3-c]quinolin]-8′-yl)pyridin-3-yl)benzenesulfonamide hydrochloride] | 7.00 to 9.00 | > 9.30
CN(C)CCCOc1ncc(-c2cc3c4c(cnc3cc2F)N(C)C(=O)C42CC2)cc1NS(=O)(=O)c1ccc(Cl)cc1 [Example 129, 4-Chloro-N-(2-(3-(dimethylamino)propoxy)-5-(7′-fluoro-3′-methyl-2′-oxo-2′,3′-dihydrospiro[cyclopropane-1,1′-pyrrolo[2,3-c]quinolin]-8′-yl)pyridin-3-yl) benzenesulfonamide hydrochloride] | 7.00 to 9.00 | 7.00 to 9.00
CN(C)CCCOc1ncc(-c2ccc3ncc4c(c3c2)C2(CCC2)C(=O)N4C)cc1NS(=O)(=O)c1cncc(Cl)c1 [Example 130, 5-Chloro-N-(2-(3-(dimethylamino)propoxy)-5-(3′-methyl-2′-oxo-2′,3′-dihydrospiro[cyclobulane-1,1′-pyrrolo[2,3-c]quinolin]-8′-yl)pyridin-3-ylpyridine-3-sulfonamide hydrochloride] | 7.00 to 9.00 | 7.00 to 9.00
CN1C(=O)C2(CCC2)c2c1cnc1ccc(-c3cnc(OCCCN4CCOCC4)c(NS(=O)(=O)c4ccccc4)c3)cc21 [Example 131, N-(5-(3′-Methyl-2′-oxo-2′,3′-dihydrospiro[cyclobulane-1,1′-pyrrolo[2,3-c]quinolin]-8′-yl)-2-(3-morpholinopropoxy)pyridin-3-yl)benzenesulfonamide hydrochloride] | 7.00 to 9.00 | 7.00 to 9.00
CN1C(=O)C2(CCC2)c2c1cnc1ccc(-c3cnc(OCCCN4CCCCC4)c(NS(=O)(=O)c4ccccc4)c3)cc21 [Example 132, N-(5-(3′-Methyl-2′-oxo-2′,3′-dihydrospiro[cyclobulane-1,1′-pyrrolo[2,3-c]quinolin]-8′-yl)-2-(3-(piperidin-1-yl)propoxy)pyridin-3-yl)benzenesulfonamide hydrochloride] | 7.00 to 9.00 | 7.00 to 9.00
COc1ccc(S(=O)(=O)Nc2cc(-c3ccc4ncc5c(c4c3)C3(CCC3)C(=O)N5C)cnc2OCCCN(C)C)cn1 [Example 133, N-(2-(3-(Dimethylamino)propoxy)-5-(3′-methyl-2′-oxo-2′,3′-dihydrospiro[cyclobulane-l.1′-pyrrolo[2,3-c]quinolin]-8′-yl)pyridin-3-yl)-6-methoxypyridine-3-sulfonamide hydrochloride] | 7.00 to 9.00 | 9.00 to 9.30
CN(C)CCCOc1ncc(-c2ccc3ncc4c(c3c2)C2(CCC2)C(=O)N4C)cc1NS(=O)(=O)c1ccc(S(F)(F)(F)(F)F)cc1 [Example 134, N-(2-(3-(Dimethylamino)propoxy)-5-(3′-methyl-2′-oxo-2′,3′-dihydrospiro[cyclobulane-1,1′-pyrrolo[2,3-c]quinolin]-8′-yl)pyridin-3-yl)-4-(pentafluoro-16-sulfaneyl) benzenesulfonamide] | 7.00 to 9.00 | 7.00 to 9.00
CN(C)CCCOc1ncc(-c2ccc3ncc4c(c3c2)C2(CCC2)C(=O)N4C)cc1NS(=O)(=O)N1CCOCC1 [Example 136, N-(2-(3-(Dimethylamino)propoxy)-5-(3′-methyl-2′-oxo-2′,3′-dihydrospiro [cyclobutane-1,1′-pyrrolo[2,3-c]quinolin]-8′-yl)pyridin-3-yl)morpholine-4-sulfonamide hydrochloride] | 7.00 to 9.00 | 7.00 to 9.00
Cc1ccc(S(=O)(=O)Nc2cc(-c3ccc4ncc5c(c4c3)C3(CCC3)C(=O)N5C)cnc2OCCCN(C)C)cn1 [Example 137, N-(2-(3-(Dimethylamino)propoxy)-5-(3′-methyl-2′-oxo-2′,3′-dihydrospiro[cyclobutane-1,1′-pyrrolo[2,3-c]quinolin]-8′-yl)pyridin-3-yl)-6-methylpyridine-3-sulfonamide hydrochloride] | 7.00 to 9.00 | 7.00 to 9.00
CN(C)CCCOc1ncc(-c2ccc3ncc4c(c3c2)C2(CCC2)C(=O)N4C)cc1NS(=O)(=O)c1cncc(C(F)(F)F)c1 [Example 141, N-(2-(3-(Dimethylamino)propoxy)-5-(3′-methyl-2′-oxo-2′,3′-dihydrospiro[cyclobulane-1,1′-pyrrolo[2,3-c]quinolin]-8′-yl)pyridin-3-yl)-5-(trifluoromethyl)pyridine-3-sulfonamide hydrochloride] | 7.00 to 9.00 | < 7.00
